From patent publication US8058242B2, “Chimeric proteins with natriuretic activity” (The University of Queensland, priority 2004, dated 2011)
Positions of bridges follow the written chain, without caps; N, C: chain ends. Residues, ends and D or L forms follow the SMILES beside them.

Target: Endopeptidase (NEP) (EC 3.4.24.11) (Homo sapiens, UniProt P08473)
Experiment: Stability to enzymatic degradation by NEP (Examples 7, 16)
Assay type: in vitro ADME
Settings: over the 180 min measurement period, 37° C.
Description: The incubation buffer contained 100 mM Tris/HCl and 150 mM NaCl and the pH was adjusted to 7.2-7.4. In each assay, 100 μl of peptide [500 μM] was incubated with 300 μl buffer (with 500 ng Endopeptidase (NEP) or 10 μg Plasmin) at 37° C. 50 μl aliquots were taken at times 5 min, 30 min, 60 min, 90 min, 180 min and 24 h. The reaction was quenched by heating to 100° C. for 4 min and the remaining peptide concentrations measured by RP-HPLC. Note that the levels of Plasmin required to degrade these peptides was several thousands time the levels present in human plasma.
The stability of TDT and was investigated using the same enzymatic degradation assays (NEP, plasmin, pepsin) disclosed in Example 7. […] It is also evident that the increased NEP stability cannot be explained by the length of the tail region alone as the NEP cleavage site residues at the N-terminal end of the loop region.

Sequence of Endopeptidase (NEP) (EC 3.4.24.11) (P08473 whole entry): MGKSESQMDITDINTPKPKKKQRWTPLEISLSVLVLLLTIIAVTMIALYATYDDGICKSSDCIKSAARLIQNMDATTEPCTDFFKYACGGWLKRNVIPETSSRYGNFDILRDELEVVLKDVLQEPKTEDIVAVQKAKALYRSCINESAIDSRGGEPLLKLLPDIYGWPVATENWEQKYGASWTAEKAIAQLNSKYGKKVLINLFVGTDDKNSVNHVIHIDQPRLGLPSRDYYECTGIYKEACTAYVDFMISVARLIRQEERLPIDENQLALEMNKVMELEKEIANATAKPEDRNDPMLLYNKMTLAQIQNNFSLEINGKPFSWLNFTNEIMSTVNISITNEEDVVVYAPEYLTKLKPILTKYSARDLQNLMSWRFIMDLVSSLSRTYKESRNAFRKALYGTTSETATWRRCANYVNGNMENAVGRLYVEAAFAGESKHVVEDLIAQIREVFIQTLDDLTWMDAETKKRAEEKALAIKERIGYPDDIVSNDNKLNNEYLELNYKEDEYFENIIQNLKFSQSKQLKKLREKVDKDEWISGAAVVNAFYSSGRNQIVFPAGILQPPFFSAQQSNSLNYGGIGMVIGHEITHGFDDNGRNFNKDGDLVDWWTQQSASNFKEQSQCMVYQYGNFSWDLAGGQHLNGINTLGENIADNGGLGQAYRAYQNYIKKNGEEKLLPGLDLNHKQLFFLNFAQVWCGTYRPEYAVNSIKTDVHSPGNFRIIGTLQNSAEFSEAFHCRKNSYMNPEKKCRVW

For `CC[C@H](C)[C@H](NC(=O)[C@H](CCCCN)NC(=O)[C@H](CO)NC(=O)[C@H](CC(=O)O)NC(=O)[C@@H](N)CO)C(=O)NCC(=O)N[C@@H](CC(N)=O)C(=O)NCC(=O)N[C@H]1CSSC[C@@H](C(=O)N[C@@H](CC(N)=O)C(=O)N[C@@H](CCCNC(=N)N)C(=O)N[C@H](C(=O)N[C@@H](CCSC)C(=O)N[C@@H](CCC(N)=O)C(=O)N[C@@H](CC(N)=O)C(=O)N2CCC[C@H]2C(=O)N2CCC[C@H]2C(=O)N[C@@H](CCCCN)C(=O)N[C@@H](CCCCN)C(=O)N[C@@H](Cc2ccccc2)C(=O)N[C@@H](CO)C(=O)NCC(=O)N[C@@H](CCC(=O)O)C(=O)O)[C@@H](C)CC)NC(=O)CNC(=O)[C@H](CC(C)C)NC(=O)CNC(=O)[C@H](CO)NC(=O)[C@H](C(C)C)NC(=O)[C@H](CO)NC(=O)CNC(=O)[C@H]([C@@H](C)CC)NC(=O)[C@H](CCCNC(=N)N)NC(=O)[C@H](CC(=O)O)NC(=O)[C@H](CC(C)C)NC(=O)[C@@H]2CCCN2C(=O)[C@H](Cc2ccccc2)NC(=O)CNC(=O)[C@H](Cc2ccccc2)NC1=O` [TNPc] (H-SDSKIGNGCFGFPLDRIGSVSGLGCNRIMQNPPKKFSGE-OH; disulfide 9-25), the “degradation by NEP” value was “did not show any degradation”.
